Results taken from patent US20210340130A1, “Compositions and methods for treating attention deficit disorders” (priority 2016, published 2021).

Columns and labels:
acetylcholine esterase = acetylcholine esterase (Homo sapiens, UniProt P22303); assay: Acetylcholine esterase functional inhibition; format: biochemical
Swiss Webster mice = assay: PTZ Proconvulsant test; format: in vivo; settings: doses of 30 mg/kg or less, p.o.
Description: Follow on studies of CX717 and 1739 are continuing, employing additional well-known models for ADHD drug efficacy, coupled with a variety of ongoing safety studies. Preliminary safety studies already completed have included a range of toxicity studies focusing on critical convulsant risks widely observed for previously-studied ampakines. Using the well known PTZ Proconvulsant test, non-GLP safety studies were conducted to examine proconvulsant activity of CX717. Swiss Webster mice (n=12/group) were dosed with CX717 (3, 10 or 30 mg/kg p.o.), vehicle (0.5% methocel p.o.) or a positive control, CGS8216 (10 mg/kg in 70% PEG300: 30% water i.p.). Thirty minutes later, the GABA-A antagonist, pentylenetetrazol (PTZ) was infused in the tail vein until tonic seizures were observed. The time at which the first clonic and tonic seizure was observed was noted and used to determine the dose of PTZ necessary to induce both clonic and tonic seizure.

adult patients with ADHD = assay: Phase 2 randomized, double-blind, 2-period crossover trial in adults with ADHD; format: in vivo
Description: *This phase 2 study evaluated the efficacy, tolerability and safety of CX717 in the treatment of adult patients with ADHD. The study was designed and executed as a randomized, double-blind, multi-center, 2-period crossover study comparing 2 doses of CX717 (200 mg, or 800 mg, BID) with placebo. Each treatment period lasted 3 weeks with a 2-week washout in between. Subjects met DSM-IV criteria for adult ADHD and had moderate to severe symptoms. The primary efficacy measure was the change from baseline on the ADHD Rating Scale (ADHD-RS) with adult ADHD prompts.
The present study further examined the clinical efficacy, tolerability and safety of CX717 as a drug treatment for adults with ADHD. […] Each treatment period was 3 weeks in duration with a 2-week washout in between. The study design was modeled after several similarly published ADHD studies with atomoxetine and stimulants, (Spencer et al.) with sample sizes in the mid 20s. Since this is the first such study with CX7171 in ADHD, it is assumed that efficacy would be achieved using historical assumptions in effect size, therefore, a total of 60 subjects were to be randomized.
All patients met DSM-IV criteria for adult ADHD, established by the Adult ADHD Clinical Diagnostic Scale (ACDS) Version 1.2. All patients gave written informed consent prior to enrollment and the conduct of the study was approved by either the […] Review Board (IRB) at each site or by the central IRB. Each subject had at least moderately severe ADHD symptoms (ADHD-RS score of ≥22; Clinician's Global Impression of Severity [CGI-S] score of ≥4). Each subject was male, and between 18-50 years old, inclusively. Male patients were selected because the necessary reproductive toxicology studies that would have allowed women of childbearing potential to be included in the study had not been completed.
CX717 capsules were administered orally as 200 mg BID or 800 mg BID doses. […] The study was divided into a series of periods: screening period—up to 4 weeks, treatment period 1-3 weeks; wash-out period—2 weeks; treatment period 2-3 weeks; follow-up period—approximately 1 week.
The primary efficacy outcome measure was the comparison of each dose of CX717 versus placebo on the change from baseline in ADHD symptoms as measured by the ADHD-RS at Week 3. Secondary efficacy parameters included comparisons of each dose of CX717 versus placebo for the ADHD-RS Inattentiveness Subscale Score of the ADHD-RS.
Safety was evaluated by adverse events (AEs), clinical laboratory tests, vital signs, physical examination, and electrocardiograms (ECGs).
The primary efficacy endpoint was the change from baseline in the ADHD-RS total score. Variables for the primary endpoint as well as for the secondary endpoint were based on within patient comparisons of high dose with placebo and low dose with placebo. The analyses treated subjects receiving high dose or placebo in either order as a unique entity and similarly, subjects who received low dose or placebo in either order as a unique group of its own. The primary efficacy analysis utilized the paired t-test. Descriptive statistics (number of observations, mean, standard deviation, median, minimum and maximum values) for the total score and the change from baseline were calculated by treatment group and visit and the last value was presented for both the intent-to-treat (ITT) and per protocol (PP) populations. All hypotheses testing for change from Baseline of scores, except testing for significant interaction, were performed at the 2-tailed 5% alpha significance level. P-values, based on 2-tailed tests, were rounded to 1 more decimal place than the standard deviation, up to a maximum of 3 decimal places; p-values <0.001 were presented as ‘<0.001’ in all tables.

Rat (Lister) = assay: 5 Choice serial reaction time task; format: in vivo
Source text: Another useful animal model for evaluating ampakine activity is the Five Choice Serial Reaction Time Task in Rats. This assay requires rats to provide a single nose poke in response to a light stimulus presented in one of five locations within a 9-hole chamber. With a correct response a reward is delivered that the rat collects from the food magazine at the rear of the chamber. The withdrawal of its head from the food magazine initiates a short inter-trial interval followed by the presentation of the next randomly presented stimulus. An incorrect response results in a time out period (non-reinforcement) followed by the initiation of a new trial. Groups of 12 rats were used in this study, and all rats received all treatments using a randomized sequence. For evaluation using this model, CX1739 was selected as the exemplary low impact ampakine, administered at doses of 3 and 10 mg/kg i.p. 20 min prior to the start of the study.

acetylcholine esterase, sequence (P22303 32-614): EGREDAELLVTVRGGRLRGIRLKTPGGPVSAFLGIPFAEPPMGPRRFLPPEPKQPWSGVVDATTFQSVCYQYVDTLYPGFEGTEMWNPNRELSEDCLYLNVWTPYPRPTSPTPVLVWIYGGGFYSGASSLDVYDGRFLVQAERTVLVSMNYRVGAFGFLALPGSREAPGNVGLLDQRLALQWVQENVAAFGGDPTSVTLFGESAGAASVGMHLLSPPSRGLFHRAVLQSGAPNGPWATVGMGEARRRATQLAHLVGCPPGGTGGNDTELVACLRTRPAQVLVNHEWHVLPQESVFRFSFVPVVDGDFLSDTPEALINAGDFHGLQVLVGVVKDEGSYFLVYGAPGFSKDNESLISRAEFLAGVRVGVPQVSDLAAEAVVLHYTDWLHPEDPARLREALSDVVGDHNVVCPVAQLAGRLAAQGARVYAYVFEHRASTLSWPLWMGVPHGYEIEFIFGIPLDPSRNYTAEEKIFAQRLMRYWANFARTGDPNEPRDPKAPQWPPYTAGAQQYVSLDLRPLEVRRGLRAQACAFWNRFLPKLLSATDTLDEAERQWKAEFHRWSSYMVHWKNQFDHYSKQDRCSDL

O=C(c1ccc2nonc2c1)N1CCOCC1 [CX717, 1-(benzofurazan-5-ylcarbonyl)morpholine]
Ki (acetylcholine esterase): 165 µM
inhibition at 100 µM (acetylcholine esterase; 100 μM): 53%
proconvulsant activity: dose of PTZ required to elicit a seizure (Swiss Webster mice): did not decrease the dose of PTZ required to elicit a seizure
ADHD-RS total and subscales versus placebo (adult patients with ADHD; 200 mg BID): no statistically significant differences
deaths or serious adverse events (adult patients with ADHD; 200 mg or 800 mg BID for 3 weeks): No deaths or serious adverse events
total ADHD-RS, repeated measures analysis at endpoint (adult patients with ADHD; 800 mg BID vs placebo, p=0.002): superior efficacy compared to placebo
ADHD-RS hyperactivity subscale, repeated measures analysis (adult patients with ADHD; 800 mg BID vs placebo, p=0.017): superior efficacy compared to placebo
ADHD-RS inattentiveness subscale, repeated measures analysis (adult patients with ADHD; 800 mg BID vs placebo, p=0.027): superior efficacy compared to placebo
mean change from baseline of ADHR-RS total score (adult patients with ADHD; 800 mg, 504 h): −9.95
ADHD-RS hyperactivity subscale mean difference vs placebo (adult patients with ADHD; active dose vs. placebo, last value): 1.94
tolerability and safety parameters (adult patients with ADHD; either dose (200 mg or 800 mg BID), 3 weeks): well tolerated with no clinically significant changes in cardiovascular and other safety parameters
overall incidence of treatment-emergent adverse events (TEAEs) (adult patients with ADHD; high dose (800 mg BID), placebo high dose 56%): 75%
ADHD-RS hyperactivity subscale mean difference vs placebo (adult patients with ADHD; high dose, Week 1): 2.00
ADHD-RS hyperactivity subscale mean score (change from baseline) (adult patients with ADHD; high dose, Week 1, ITT, placebo −2.22, p=0.192): −4.22
ADHD-RS hyperactivity subscale mean difference vs placebo (adult patients with ADHD; high dose, Week 3): 3.18
ADHD-RS hyperactivity subscale mean score (change from baseline) (adult patients with ADHD; high dose, Week 3, ITT, placebo −2.78, p=0.050): −5.68
difference from placebo in mean change of ADHR-RS total score (adult patients with ADHD; high dose, after 3 weeks): −4.73
ADHD-RS hyperactivity subscale mean difference vs placebo (adult patients with ADHD; high dose, last value): 3.00
most frequently reported adverse events (adult patients with ADHD; in vivo): Sleep disturbances and headache
ADHD-RS hyperactivity subscale versus placebo, repeated measures (adult patients with ADHD; low dose): No difference
ADHD-RS total score versus placebo (adult patients with ADHD; low dose (200 mg BID)): did not differ from placebo
overall incidence of treatment-emergent adverse events (TEAEs) (adult patients with ADHD; low dose (200 mg BID), placebo low dose 55%): 73%

CN(C(=O)c1ccc2nonc2c1)C1CCOCC1 [CX1739, N-Methyl-N-tetrahydro-2H-pyran-4-yl-[2,1,3]-benzoxadiazole-5-carboxamide]
latency to correct responses (Rat (Lister); 10 mg/kg): significantly reduced
omissions (Rat (Lister); 10 mg/kg): significant improvement
accuracy of responding (Rat (Lister); 3 and 10 mg/kg ip): significantly improved
number of premature responses (Rat (Lister); 3 and 10 mg/kg ip): reduced
Minimum Effective Dose (Rat (Lister); IP, dose range 3-10 mg/kg): 3 mg/kg
